Assay results from patent publication US9505728B2, “Triazolone compounds and uses thereof” (INCEPTION 2, INC., priority 2012, dated 2016).

Molecular target: T1, Human PPARα (Homo sapiens, UniProt Q07869)
T1 construct: host or cells: proprietary non-human mammalian cells
T1 sequence (Q07869 1-468): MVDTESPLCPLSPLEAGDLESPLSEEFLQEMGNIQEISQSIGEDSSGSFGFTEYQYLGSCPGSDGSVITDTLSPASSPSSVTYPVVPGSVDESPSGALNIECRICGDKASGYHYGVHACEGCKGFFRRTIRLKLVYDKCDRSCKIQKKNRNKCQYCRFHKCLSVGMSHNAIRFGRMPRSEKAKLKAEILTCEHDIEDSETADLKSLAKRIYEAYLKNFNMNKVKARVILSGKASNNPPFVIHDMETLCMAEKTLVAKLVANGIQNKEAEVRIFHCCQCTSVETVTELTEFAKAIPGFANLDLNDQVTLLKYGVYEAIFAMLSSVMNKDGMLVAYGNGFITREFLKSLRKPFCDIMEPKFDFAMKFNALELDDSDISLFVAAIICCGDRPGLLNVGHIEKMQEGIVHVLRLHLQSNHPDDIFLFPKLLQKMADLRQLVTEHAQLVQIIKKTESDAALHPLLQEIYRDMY
Assay: Human PPARα Reporter Assay (luciferase)
Assay type: cell-based
Details: human PPARα reporter cells, overnight incubation, antagonism; read-out: Luciferase IC50
Procedure, shortened: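 Agonist or antagonist activity read as luciferase light from engineered reporter cells carrying human PPARα and a responsive reporter gene. Cells got compound immediately on dispensing, incubated overnight, then treatment media swapped for luciferase detection reagent.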

IC50	Compound
3 nM	CCn1c(CCCc2ccc(-c3ccc(OC)c(NS(=O)(=O)c4ccc(OC)cc4)n3)cc2)nn(Cc2ccc(C(C)(C)C)cc2)c1=O [Example 93, 1-{[4-(tert-Butyl)phenyl]methyl}-4-ethyl-3-{3-[4-(5-methoxy-6-{[(4-methoxyphenyl)sulfonyl]amino}(2-pyridyl))phenyl]propyl}-1,2,4-triazolin-5-one]
684 nM	CCn1c(CCCc2ccc(-c3ncc(N)cc3C(F)(F)F)cc2)nn(Cc2ccc(C(C)(C)C)cc2)c1=O [Example 156, 3-(3-{4-[5-Amino-3-(trifluoromethyl)(2-pyridyl)]phenyl}propyl)-1-{[4-(tert-butyl)phenyl]methyl}-4-ethyl-1,2,4-triazolin-5-one]
207 nM	CCn1c(CCCc2ccc(-c3ccc(NS(=O)(=O)c4ccc5c(c4)CCN5C(C)=O)cn3)cc2)nn(Cc2ccc(C(C)(C)C)cc2)c1=O [Example 75, 1-Acetyl-5-{[(6-{4-[3-(1-{[4-(tert-butyl)phenyl]methyl}-4-ethyl-5-oxo(1,2,4-triazolin-3-yl))propyl]phenyl}(3-pyridyl))amino]sulfonyl}indoline]
12 nM	CCn1c(CCCc2ccc(-c3ccc(OC)c(NS(=O)(=O)C4CCCCC4)n3)cc2)nn(Cc2ccc(C(C)(C)C)cc2)c1=O [Example 192, 1-{[4-(tert-Butyl)phenyl]methyl}-4-ethyl-3-[3-(4-{6-[(cyclohexylsulfonyl)amino]-5-methoxy(2-pyridyl)}phenyl)propyl]-1,2,4-triazolin-5-one]
607 nM	CCn1c(CCCc2ccc(-c3ccc(C4(O)CCOCC4)cc3)cc2)nn(Cc2ccc(C(C)(C)C)cc2)c1=O [Example 187, 1-(4-(tert-Butyl)benzyl)-4-ethyl-3-(3-(4′-(4-hydroxytetrahydro-2H-pyran-4-yl)-[1,1′-biphenyl]-4-yl)propyl)-1H-1,2,4-triazol-5(4H)-one]
271 nM	CCn1c(CCCc2ccc(-c3cccc(N)n3)cc2)nn(Cc2ccc(C(C)(C)C)cc2)c1=O [Example 3, 3-(3-(4-(6-Aminopyridin-2-yl)phenyl)propyl)-1-(4-(tert-butyl)benzyl)-4-ethyl-1H-1,2,4-triazol-5(4H)-one]
985 nM	CCn1c(CCCc2ccc(-c3cccc(CS(=O)(=O)NCc4ccccc4)c3)cc2)nn(Cc2ccc(C(C)(C)C)cc2)c1=O [Example 105, N-Benzyl-1-(4′-(3-(1-(4-(tert-butyl)benzyl)-4-ethyl-5-oxo-4,5-dihydro-1H-1,2,4-triazol-3-yl)propyl)-[1,1′-biphenyl]-3-yl)methanesulfonamide]
692 nM	CCn1c(CCCc2ccc(-c3ccc(OC)c(CC(=O)O)c3)c(O)c2)nn(Cc2ccc(C(C)(C)C)cc2)c1=O [Example 145, 2-(4′-(3-(1-(4-(tert-Butyl)benzyl)-4-ethyl-5-oxo-4,5-dihydro-1H-1,2,4-triazol-3-yl)propyl)-2′-hydroxy-4-methoxy-[1,1′-biphenyl]-3-yl) acetic acid]
98 nM	CCn1c(CCCc2ccc(-c3ccc(OC)c(CC(=O)O)c3)cc2O)nn(Cc2ccc(C(C)(C)C)cc2)c1=O [Example 146, 2-(4′-(3-(1-(4-(tert-Butyl)benzyl)-4-ethyl-5-oxo-4,5-dihydro-1H-1,2,4-triazol-3-yl)propyl)-3′-hydroxy-4-methoxy-[1,1′-biphenyl]-3-yl) acetic acid]
535 nM	CCNC(=O)Nc1ccc(-c2ccc(CCCc3nn(Cc4ccc(C(C)(C)C)cc4)c(=O)n3CC)cc2)nc1 [Example 169, 1-(6-(4-(3-(1-(4-(tert-Butyl)benzyl)-4-ethyl-5-oxo-4,5-dihydro-1H-1,2,4-triazol-3-yl)propyl)phenyl)pyridin-3-yl)-3-ethylurea]
362 nM	CCn1c(CCCc2ccc(-c3cccc(NC(=O)NCc4ccccc4)n3)cc2)nn(Cc2ccc(C(C)(C)C)cc2)c1=O [Example 155, 1-Benzyl-3-(6-(4-(3-(1-(4-(tert-butyl)benzyl)-4-ethyl-5-oxo-4,5-dihydro-1H-1,2,4-triazol-3-yl)propyl)phenyl)pyridin-2yl)urea]
816 nM	CCn1c(CCCc2ccc(-c3cc(OC)c(NS(=O)(=O)c4ccccc4)cn3)cc2)nn(Cc2ccc(C(C)(C)C)cc2)c1=O [Example 112, 1-{[4-(tert-Butyl)phenyl]methyl}-4-ethyl-3-[3-(4-{4-methoxy-5-[(phenylsulfonyl)amino](2-pyridyl)}phenyl)propyl]-1,2,4-triazolin-5-one]
241 nM	CCn1c(CCCc2ccc(-c3ccc(C(F)(F)F)c(N)c3)cc2)nn(Cc2ccc(C(C)(C)C)cc2)c1=O [Example 148, 3-(3-(3′-Amino-4′-(trifluoromethyl)-[1,1′-biphenyl]-4-yl)propyl)-1-(4-(tert-butyl)benzyl)-4-ethyl-1H-1,2,4-triazol-5(4H)-one]
57 nM	CCn1c(CCCc2ccc(-c3cccc(C(=O)O)c3)cc2)nn(Cc2ccc(C(C)(C)C)cc2)c1=O [Example 2, 4′-(3-(1-(4-(tert-Butyl)benzyl)-4-ethyl-5-oxo-4,5-dihydro-1H-1,2,4-triazol-3-yl)propyl)-[1,1′-biphenyl]-3-carboxylic acid]
330 nM	CCn1c(CCCc2ccc(-c3cccc(C(O)C(=O)NC4CC4)c3)cc2)nn(Cc2ccc(C(C)(C)C)cc2)c1=O (centres unmarked) [Example 56, 2-(4′-(3-(1-(4-(tert-Butyl)benzyl)-4-ethyl-5-oxo-4,5-dihydro-1H-1,2,4-triazol-3-yl)propyl)-[1,1′-biphenyl]-3-yl)-N-cyclopropyl-2-hydroxyacetamide]
32 nM	CCCn1c(CCCc2ccc(-c3ccc(OCC)c(CC(=O)O)c3)cc2)nn(Cc2ccc(C(C)(C)C)cc2)c1=O [Example 68, 2-(4′-(3-(1-(4-(tert-Butyl)benzyl)-5-oxo-4-propyl-4,5-dihydro-1H-1,2,4-triazol-3-yl)propyl)-4-ethoxy-[1,1′-biphenyl]-3-yl)acetic acid]
26 nM	COc1ccc(-c2ccc(CCCc3nn(Cc4ccc(C(C)(C)C)cc4)c(=O)n3C)cc2)cc1CC(=O)O [Example 106, 2-(4′-(3-(1-(4-(tert-Butyl)benzyl)-4-methyl-5-oxo-4,5-dihydro-1H-1,2,4-triazol-3-yl)propyl)-4-methoxy-[1,1′-biphenyl]-3-yl)acetic acid]
114 nM	CCn1c(CCCc2ccc(-c3ccc(OC)c(CC(=O)O)n3)cc2)nn(Cc2ccc(C(C)(C)C)cc2)c1=O [Example 144, 2-(6-(4-(3-(1-(4-(tert-Butyl)benzyl)-4-ethyl-5-oxo-4,5-dihydro-1H-1,2,4-triazol-3-yl)propyl)phenyl)-3-methoxypyridin-2-yl)acetic acid]
63 nM	CCn1c(CCCc2ccc(-c3ccc(NS(C)(=O)=O)cn3)cc2)nn(Cc2ccc(C(C)(C)C)cc2)c1=O [Example 12, N-(6-(4-(3-(1-(4-(tert-Butyl)benzyl)-4-ethyl-5-oxo-4,5-dihydro-1H-1,2,4-triazol-3-yl)propyl)phenyl)pyridin-3-yl)methanesulfonamide]
25 nM	CCn1c(CCCc2ccc(-c3ccc(OC)c(CC(=O)O)c3)cc2)nn(Cc2ccc(C(C)(C)C)cc2)c1=O [Example 21, 2-(4′-(3-(1-(4-(tert-Butyl)benzyl)-4-ethyl-5-oxo-4,5-dihydro-1H-1,2,4-triazol-3-yl)propyl)-4-methoxy-[1,1′-biphenyl]-3-yl)acetic acid]
85 nM	CCn1c(CCCc2ccc(-c3ccc(OC)c(N)c3)cc2)nn(Cc2ccc(C(C)(C)C)cc2)c1=O [Example 147, 3-(3-(3′-Amino-4′-methoxy-[1,1′-biphenyl]-4-yl)propyl)-1-(4-(tert-butyl)benzyl)-4-ethyl-1H-1,2,4-triazol-5(4H)-one]
662 nM	CCn1c(CCCc2ccc(-c3cccc(CC(=O)O)c3)cc2)nn(Cc2ccc(C(C)(C)C)c(C3CC3)c2)c1=O [Example 85, 2-(4′-(3-(1-(3-Cyclopropyl-4-(tert-butyl)benzyl)-4-ethyl-5-oxo-4,5-dihydro-1H-1,2,4-triazol-3-yl)propyl)-[1,1′-biphenyl]-3-yl)acetic acid]
292 nM	CCn1c(CCCc2ccc(-c3ccc(C(O)C(=O)NC4CC4)cc3)cc2)nn(Cc2ccc(C(C)(C)C)cc2)c1=O (centres unmarked) [Example 51, 2-(4′-(3-(1-(4-(tert-Butyl)benzyl)-4-ethyl-5-oxo-4,5-dihydro-1H-1,2,4-triazol-3-yl)propyl)-[1,1′-biphenyl]-4-yl)-N-cyclopropyl-2-hydroxyacetamide]
263 nM	CCn1c(CCCc2ccc(-c3ccc(NS(=O)(=O)Cc4ccccc4)cn3)cc2)nn(Cc2ccc(C(C)(C)C)cc2)c1=O [Example 79, 1-{[4-(tert-Butyl)phenyl]methyl}-4-ethyl-3-{3-[4-(5-{[benzylsulfonyl]amino}(2-pyridyl))phenyl]propyl}-1,2,4-triazolin-5-one]
534 nM	CCn1c(CCCc2ccc(-c3ccc(OC)c(N(C)S(=O)(=O)c4ccccc4)n3)cc2)nn(Cc2ccc(C(C)(C)C)cc2)c1=O [Example 110, 1-{[4-(tert-Butyl)phenyl]methyl}-4-ethyl-3-[3-(4-{5-methoxy-6-[N-methyl(phenylsulfonyl)amino](2-pyridyl)}phenyl)propyl]-1,2,4-triazolin-5-one]
22 nM	CCCn1c(CCCc2ccc(-c3ccc(OC)c(CC(=O)O)c3)cc2)nn(Cc2ccc(C(C)(C)C)cc2)c1=O [Example 80, 2-(4′-(3-(1-(4-(tert-Butyl)benzyl)-5-oxo-4-propyl-4,5-dihydro-1H-1,2,4-triazol-3-yl)propyl)-4-methoxy-[1,1′-biphenyl]-3-yl)acetic acid]
